Key:
Assay type in all cases: functional
Heliothis virescens [1] = experiment: Insecticidal activity against tobacco budworm third instar larvae at 19.8 ug/cm2 applied on upper surface of circular leaf disk after 2 days
Heliothis virescens [2] = experiment: Insecticidal activity against tobacco budworm third instar larvae at 19.8 ug/cm2 applied on upper surface of circular leaf disk after 6 days
Heliothis virescens [3] = experiment: Insecticidal activity against tobacco budworm third instar larvae at 6 ug/cm2 applied on upper surface of circular leaf disk after 2 days
Heliothis virescens [4] = experiment: Insecticidal activity against tobacco budworm third instar larvae at 6 ug/cm2 applied on upper surface of circular leaf disk after 6 days
Heliothis virescens [5] = experiment: Insecticidal activity against tobacco budworm third instar larvae at 1.5 ug/cm2 applied on upper surface of circular leaf disk after 2 days
Heliothis virescens [6] = experiment: Insecticidal activity against tobacco budworm third instar larvae at 1.5 ug/cm2 applied on upper surface of circular leaf disk after 6 days
Spodoptera eridania [7] = experiment: Insecticidal activity against southern armyworm third instar larvae at 19.8 ug/cm2 applied on upper surface of circular leaf disk after 2 days
Spodoptera eridania [8] = experiment: Insecticidal activity against southern armyworm third instar larvae at 19.8 ug/cm2 applied on upper surface of circular leaf disk after 6 day
Spodoptera eridania [9] = experiment: Insecticidal activity against southern armyworm third instar larvae at 6 ug/cm2 applied on upper surface of circular leaf disk after 2 days
Spodoptera eridania [10] = experiment: Insecticidal activity against southern armyworm third instar larvae at 6 ug/cm2 applied on upper surface of circular leaf disk after 6 days
Spodoptera eridania [11] = experiment: Insecticidal activity against southern armyworm third instar larvae at 1.5 ug/cm2 applied on upper surface of circular leaf disk after 2 days
Spodoptera eridania [12] = experiment: Insecticidal activity against southern armyworm third instar larvae at 1.5 ug/cm2 applied on upper surface of circular leaf disk after 6 days
Epilachna varivestis [13] = experiment: Insecticidal activity against mexican bean beetle third instar larvae at 19.8 ug/cm2 applied on upper surface of circular leaf disk after 2 days
Epilachna varivestis [14] = experiment: Insecticidal activity against mexican bean beetle third instar larvae at 19.8 ug/cm2 applied on upper surface of circular leaf disk after 6 days
Epilachna varivestis [15] = experiment: Insecticidal activity against mexican bean beetle third instar larvae at 6 ug/cm2 applied on upper surface of circular leaf disk after 2 days
Epilachna varivestis [16] = experiment: Insecticidal activity against mexican bean beetle third instar larvae at 6 ug/cm2 applied on upper surface of circular leaf disk after 6 days
Epilachna varivestis [17] = experiment: Insecticidal activity against mexican bean beetle third instar larvae at 1.5 ug/cm2 applied on upper surface of circular leaf disk after 2 days
Epilachna varivestis [18] = experiment: Insecticidal activity against mexican bean beetle third instar larvae at 1.5 ug/cm2 applied on upper surface of circular leaf disk after 6 days

SMILES | Activity (Heliothis virescens [1]) | Activity (Heliothis virescens [2]) | Activity (Heliothis virescens [3]) | Activity (Heliothis virescens [4]) | Activity (Heliothis virescens [5]) | Activity (Heliothis virescens [6]) | Activity (Spodoptera eridania [7]) | Activity (Spodoptera eridania [8]) | Activity (Spodoptera eridania [9]) | Activity (Spodoptera eridania [10]) | Activity (Spodoptera eridania [11]) | Activity (Spodoptera eridania [12]) | Activity (Epilachna varivestis [13]) | Activity (Epilachna varivestis [14]) | Activity (Epilachna varivestis [15]) | Activity (Epilachna varivestis [16]) | Activity (Epilachna varivestis [17]) | Activity (Epilachna varivestis [18])
C=C1[C@H]([C@@]2(C)[C@@H](OC(C)=O)CC(=O)O[C@]3(C)COC(=O)C[C@H]23)[C@@H](OC=O)[C@H](OC(=O)CC(C)C)[C@@]2(C)[C@@H](c3ccoc3)CC(=O)[C@@]12O [ROHITIUKIN] | 0% | 30% | 0% | 0% | 0% | 0% | 0% | 0% | 0% | 0% | 0% | 0% | 0% | 0% | 0% | 0% | 0% | 0%
C=C1[C@@H]([C@@]2(C)[C@@H](OC(C)=O)CC(=O)O[C@](C)(COC(C)=O)[C@@H]2C(=O)OC)[C@@H](OC=O)[C@H](OC(=O)[C@H](O)[C@H](C)CC)[C@@]2(C)[C@H](c3ccoc3)CC(=O)[C@]12O [PRIEURIANIN] | 60% | 60% | 30% | 60% | 30% | 0% | 30% | 0% | 0% | 0% | 0% | 0% | 60% | 60% | 30% | 30% | 0% | 0%
C/C=C(\C)C(=O)O[C@H]1C[C@@H](OC(C)=O)[C@@]2(C(=O)OC)CO[C@H]3[C@@H](O)[C@@](C)([C@]45O[C@@]4(C)[C@@H]4C[C@H]5O[C@@H]5OC=C[C@@]54O)[C@H]4[C@]1(CO[C@]4(O)C(=O)OC)[C@@H]32 [AZADIRACHTIN A] | 60% | 60% | 60% | 60% | 60% | 60% | 90% | 90% | 60% | 60% | 60% | 30% | 90% | 90% | 90% | 90% | 30% | 60%
C=C1[C@@H]([C@@]2(C)C=CC(=O)O[C@]3(C)COC(=O)C[C@H]23)[C@@H](OC=O)[C@H](OC(=O)C(O)C(C)CC)[C@@]2(C)[C@@H](c3ccoc3)C[C@H](OC(C)=O)[C@]12O (some centres not stated) [ROHITIUKA 7] | 60% | 60% | 0% | 0% | 0% | 0% | 0% | 0% | 0% | 0% | 0% | 0% | 0% | 0% | 0% | 0% | 0% | 0%

— ChEMBL document CHEMBL1151662, “Insect Antifeedant Activity of Four Prieurianin-Type Limonoids” (1985)
